Laboratory results as given in patent US8623900B2, “Amino alcohol derivatives and their therapeutic activities” (Flamma S.p.A., priority 2009, dated 2014).

Assays:
[1] = carbonyl-quenching activity towards HNE in vitro (residual HNE by reverse-phase chromatography); type: biochemical; settings: HNE 50 μM, compound 1 mM, phosphate buffer 10 mM, pH 7.4, 37° C.; percentage of HNE reacted after one, two and three hours
Protocol: The pharmacological activity of the compounds according to the invention was determined in vitro by evaluating their carbonyl-quenching activity towards 4-hydroxy nonenal ([…]), which is known for its involvement in numerous disorders.
The activity was evaluated one, two and three hours after incubation, determining the residual HNE content by reverse-phase chromatography as previously described by Aldini G. et al. [Biochem Biophys Res Commun. 2002 Nov. 15; 298(5):699-706]. The carbonyl-quenching activity is evaluated on the basis of the percentage of HNE reacted, compared with the HNE content in the absence of the molecule to be tested.

rat = experiment: preliminary toxicological study in the rat; type: in vivo

## NCCC(=O)N[C@H](CO)Cc1cnc[nH]1 [3-Amino-N-[(1S)-2-hydroxy-1-(1H-imidazol-5-yl-methyl)-ethyl]propanamide]
[1]
  carbonyl-quenching activity relative to β-alanyl histidine (standard substance): 1.66 times
rat; IV, 3 consecutive doses 3, 10 and 30 mg/kg
  toxic effects: no toxic effects were observed
rat; intraperitoneal, single dose 100 mg/kg
  toxic effects: no toxic effects were observed
rat; per os (gavage), 100 mg/kg/day for 7 days
  toxic effects: no toxic effects were observed
